{"source": "paper PMC9186362", "about": "“Design and biological evaluation of substituted 5,7-dihydro-6H-indolo[2,3-c]quinolin-6-one as novel selective Haspin inhibitors” (Journal of Enzyme Inhibition and Medicinal Chemistry, 2022)", "type_in_all_cases": "biochemical", "key": {"panel of 486 kinases": {"tested_on": "panel of 486 kinases", "experiment": "SelectScreen Whole Panel selectivity profile", "conditions": "1 µM", "protocol": "(§1) We further evaluated the selectivity profile of compound 55 on a larger panel of kinases (SelectScreen Whole Panel, Life Technologies). The inhibition profile of 55, evaluated at 1 μM, is depicted on a dendrogram on Figure 3 where kinases inhibited by a minimum of 80% are shown. A full list of the kinases tested is shown on Table S1 in supplementary information."}, "CAMK1 (CaMK1)": {"molecular_target": "T1, CAMK1 (CaMK1) (Homo sapiens, UniProt Q14012)", "T1 construct": "purchased Life Technologies (SelectScreen Whole Panel service)", "experiment": "SelectScreen Adapta", "conditions": "ATP 10 µM, read-out: Percentage of inhibition", "protocol": "as §1"}, "CDK4/cyclin D1": {"molecular_target": "T2, CDK4/cyclin D1 (Homo sapiens, UniProt P11802)", "T2 construct": "purchased Life Technologies (SelectScreen Whole Panel service)", "experiment": "SelectScreen Adapta", "conditions": "ATP 10 µM, read-out: Percentage of inhibition", "protocol": "as §1"}, "CDK4/cyclin D3": {"molecular_target": "T3, CDK4/cyclin D3 (Homo sapiens, UniProt P11802)", "T3 construct": "purchased Life Technologies", "experiment": "SelectScreen Adapta", "conditions": "ATP 10 µM, read-out: Percentage of inhibition", "protocol": "as §1"}, "CDK6/cyclin D1": {"molecular_target": "CDK6/cyclin D1 (Homo sapiens, UniProt Q00534)", "experiment": "SelectScreen Adapta", "conditions": "ATP 10 µM, read-out: Percentage of inhibition", "protocol": "as §1"}, "CDK7/cyclin H/MNAT1": {"molecular_target": "T4, CDK7/cyclin H/MNAT1 (Homo sapiens, UniProt P50613)", "T4 construct": "purchased Life Technologies", "experiment": "SelectScreen Adapta", "conditions": "ATP Km, read-out: Percentage of inhibition", "protocol": "as §1"}, "CDK9/cyclin T1": {"molecular_target": "CDK9/cyclin T1 (Homo sapiens, UniProt P50750)", "experiment": "SelectScreen Adapta", "conditions": "ATP Km, read-out: Percentage of inhibition", "protocol": "as §1"}, "DAPK1": {"molecular_target": "DAPK1 (Homo sapiens, UniProt P53355)", "experiment": "SelectScreen Adapta", "conditions": "ATP Km, read-out: Percentage of inhibition", "protocol": "as §1"}, "GSG2 (Haspin)": {"molecular_target": "T5, GSG2 (Haspin) (Homo sapiens, UniProt Q8TF76)", "T5 construct": "purchased Life Technologies (SelectScreen Whole Panel)", "experiment": "SelectScreen Adapta", "conditions": "ATP Km, read-out: Percentage of inhibition", "protocol": "as §1"}, "IRAK1": {"molecular_target": "T6, IRAK1 (Homo sapiens, UniProt P51617)", "T6 construct": "purchased Life Technologies (SelectScreen service)", "experiment": "SelectScreen Adapta", "conditions": "ATP Km, read-out: Percentage of inhibition", "protocol": "as §1"}, "LRRK2": {"molecular_target": "T7, LRRK2 (Homo sapiens, UniProt Q5S007)", "T7 construct": "purchased Life Technologies (SelectScreen service)", "T7 sequence (Q5S007 970-2527 limits assumed)": "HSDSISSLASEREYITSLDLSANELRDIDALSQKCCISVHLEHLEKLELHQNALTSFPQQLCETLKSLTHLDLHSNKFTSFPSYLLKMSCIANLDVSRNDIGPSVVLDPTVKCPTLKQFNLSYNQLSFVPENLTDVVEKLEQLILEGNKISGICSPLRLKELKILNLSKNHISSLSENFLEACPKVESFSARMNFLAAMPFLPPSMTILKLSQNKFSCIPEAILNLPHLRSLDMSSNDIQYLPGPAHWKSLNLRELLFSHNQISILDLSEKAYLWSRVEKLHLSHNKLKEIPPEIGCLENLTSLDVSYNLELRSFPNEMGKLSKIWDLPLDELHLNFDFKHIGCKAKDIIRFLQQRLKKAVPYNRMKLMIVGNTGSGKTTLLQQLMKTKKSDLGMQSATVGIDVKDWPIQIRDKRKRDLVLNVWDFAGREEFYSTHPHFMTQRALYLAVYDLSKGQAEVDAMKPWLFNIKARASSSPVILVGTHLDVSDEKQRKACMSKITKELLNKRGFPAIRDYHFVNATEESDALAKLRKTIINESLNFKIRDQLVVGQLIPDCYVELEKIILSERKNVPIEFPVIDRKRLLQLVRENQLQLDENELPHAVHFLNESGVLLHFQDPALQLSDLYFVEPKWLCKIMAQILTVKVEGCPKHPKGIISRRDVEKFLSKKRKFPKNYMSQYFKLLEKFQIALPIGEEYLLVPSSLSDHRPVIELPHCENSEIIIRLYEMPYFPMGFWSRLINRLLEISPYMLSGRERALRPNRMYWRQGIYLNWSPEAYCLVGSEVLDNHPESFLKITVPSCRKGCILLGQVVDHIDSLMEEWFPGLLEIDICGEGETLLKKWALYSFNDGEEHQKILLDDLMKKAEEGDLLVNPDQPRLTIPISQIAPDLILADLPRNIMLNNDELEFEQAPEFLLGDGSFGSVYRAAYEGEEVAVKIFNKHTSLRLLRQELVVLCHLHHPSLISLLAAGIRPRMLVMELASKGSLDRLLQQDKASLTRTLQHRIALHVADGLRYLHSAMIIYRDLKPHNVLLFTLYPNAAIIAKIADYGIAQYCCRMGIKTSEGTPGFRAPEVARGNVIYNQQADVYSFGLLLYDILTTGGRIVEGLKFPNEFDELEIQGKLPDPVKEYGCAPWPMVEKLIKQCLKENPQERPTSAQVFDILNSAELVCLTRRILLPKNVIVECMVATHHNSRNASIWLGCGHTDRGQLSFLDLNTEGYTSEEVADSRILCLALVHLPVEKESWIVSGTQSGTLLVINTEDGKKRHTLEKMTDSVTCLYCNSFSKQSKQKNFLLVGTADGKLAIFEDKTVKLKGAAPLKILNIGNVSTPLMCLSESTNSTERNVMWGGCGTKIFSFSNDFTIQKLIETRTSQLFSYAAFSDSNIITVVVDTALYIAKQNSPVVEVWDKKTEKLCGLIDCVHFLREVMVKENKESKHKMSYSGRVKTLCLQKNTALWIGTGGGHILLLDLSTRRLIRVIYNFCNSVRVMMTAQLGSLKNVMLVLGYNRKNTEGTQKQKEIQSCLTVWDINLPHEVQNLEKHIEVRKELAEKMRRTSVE", "experiment": "SelectScreen Adapta", "conditions": "ATP Km, read-out: Percentage of inhibition", "protocol": "as §1"}, "LRRK2 FL": {"molecular_target": "T8, LRRK2 FL (Homo sapiens, UniProt Q5S007)", "T8 construct": "purchased Life Technologies", "experiment": "SelectScreen Adapta", "conditions": "ATP Km, read-out: Percentage of inhibition", "protocol": "as §1"}, "LRRK2 G2019S": {"molecular_target": "T9, LRRK2 G2019S (Homo sapiens, UniProt Q5S007, G2019S)", "T9 construct": "purchased Life Technologies", "experiment": "SelectScreen Adapta", "conditions": "ATP Km, read-out: Percentage of inhibition", "protocol": "as §1"}, "LRRK2 I2020T": {"molecular_target": "T10, LRRK2 I2020T (Homo sapiens, UniProt Q5S007, I2020T)", "T10 construct": "purchased Life Technologies (SelectScreen Whole Panel)", "T10 sequence (Q5S007 970-2527 I2020T limits assumed)": "as the sequence (Q5S007 970-2527 limits assumed) above, with I1051T counted along it", "experiment": "SelectScreen Adapta", "conditions": "ATP Km, read-out: Percentage of inhibition", "protocol": "as §1"}, "LRRK2 R1441C": {"molecular_target": "T11, LRRK2 R1441C (Homo sapiens, UniProt Q5S007, R1441C)", "T11 construct": "purchased Life Technologies", "experiment": "SelectScreen Adapta", "conditions": "ATP Km, read-out: Percentage of inhibition", "protocol": "as §1"}, "NUAK1 (ARK5)": {"molecular_target": "NUAK1 (ARK5) (Homo sapiens, UniProt O60285)", "experiment": "SelectScreen Adapta", "conditions": "ATP Km, read-out: Percentage of inhibition", "protocol": "as §1"}, "PI4K2B (PI4K2 beta)": {"molecular_target": "T12, PI4K2B (PI4K2 beta) (Homo sapiens, UniProt Q8TCG2)", "T12 construct": "purchased Life Technologies (SelectScreen Whole Panel)", "experiment": "SelectScreen Adapta", "conditions": "ATP Km, read-out: Percentage of inhibition", "protocol": "as §1"}, "PI4KA (PI4K alpha)": {"molecular_target": "T13, PI4KA (PI4K alpha) (Homo sapiens, UniProt P42356)", "T13 construct": "purchased Life Technologies (SelectScreen Whole Panel)", "experiment": "SelectScreen Adapta", "conditions": "ATP 10 µM, read-out: Percentage of inhibition", "protocol": "as §1"}, "PI4KB (PI4K beta)": {"molecular_target": "T14, PI4KB (PI4K beta) (Homo sapiens, UniProt Q9UBF8)", "T14 construct": "purchased Life Technologies", "experiment": "SelectScreen Adapta", "conditions": "ATP Km, read-out: Percentage of inhibition", "protocol": "as §1"}, "PIK3C2B": {"molecular_target": "PIK3C2B (Homo sapiens, UniProt O00750)", "sequence (O00750 whole entry)": "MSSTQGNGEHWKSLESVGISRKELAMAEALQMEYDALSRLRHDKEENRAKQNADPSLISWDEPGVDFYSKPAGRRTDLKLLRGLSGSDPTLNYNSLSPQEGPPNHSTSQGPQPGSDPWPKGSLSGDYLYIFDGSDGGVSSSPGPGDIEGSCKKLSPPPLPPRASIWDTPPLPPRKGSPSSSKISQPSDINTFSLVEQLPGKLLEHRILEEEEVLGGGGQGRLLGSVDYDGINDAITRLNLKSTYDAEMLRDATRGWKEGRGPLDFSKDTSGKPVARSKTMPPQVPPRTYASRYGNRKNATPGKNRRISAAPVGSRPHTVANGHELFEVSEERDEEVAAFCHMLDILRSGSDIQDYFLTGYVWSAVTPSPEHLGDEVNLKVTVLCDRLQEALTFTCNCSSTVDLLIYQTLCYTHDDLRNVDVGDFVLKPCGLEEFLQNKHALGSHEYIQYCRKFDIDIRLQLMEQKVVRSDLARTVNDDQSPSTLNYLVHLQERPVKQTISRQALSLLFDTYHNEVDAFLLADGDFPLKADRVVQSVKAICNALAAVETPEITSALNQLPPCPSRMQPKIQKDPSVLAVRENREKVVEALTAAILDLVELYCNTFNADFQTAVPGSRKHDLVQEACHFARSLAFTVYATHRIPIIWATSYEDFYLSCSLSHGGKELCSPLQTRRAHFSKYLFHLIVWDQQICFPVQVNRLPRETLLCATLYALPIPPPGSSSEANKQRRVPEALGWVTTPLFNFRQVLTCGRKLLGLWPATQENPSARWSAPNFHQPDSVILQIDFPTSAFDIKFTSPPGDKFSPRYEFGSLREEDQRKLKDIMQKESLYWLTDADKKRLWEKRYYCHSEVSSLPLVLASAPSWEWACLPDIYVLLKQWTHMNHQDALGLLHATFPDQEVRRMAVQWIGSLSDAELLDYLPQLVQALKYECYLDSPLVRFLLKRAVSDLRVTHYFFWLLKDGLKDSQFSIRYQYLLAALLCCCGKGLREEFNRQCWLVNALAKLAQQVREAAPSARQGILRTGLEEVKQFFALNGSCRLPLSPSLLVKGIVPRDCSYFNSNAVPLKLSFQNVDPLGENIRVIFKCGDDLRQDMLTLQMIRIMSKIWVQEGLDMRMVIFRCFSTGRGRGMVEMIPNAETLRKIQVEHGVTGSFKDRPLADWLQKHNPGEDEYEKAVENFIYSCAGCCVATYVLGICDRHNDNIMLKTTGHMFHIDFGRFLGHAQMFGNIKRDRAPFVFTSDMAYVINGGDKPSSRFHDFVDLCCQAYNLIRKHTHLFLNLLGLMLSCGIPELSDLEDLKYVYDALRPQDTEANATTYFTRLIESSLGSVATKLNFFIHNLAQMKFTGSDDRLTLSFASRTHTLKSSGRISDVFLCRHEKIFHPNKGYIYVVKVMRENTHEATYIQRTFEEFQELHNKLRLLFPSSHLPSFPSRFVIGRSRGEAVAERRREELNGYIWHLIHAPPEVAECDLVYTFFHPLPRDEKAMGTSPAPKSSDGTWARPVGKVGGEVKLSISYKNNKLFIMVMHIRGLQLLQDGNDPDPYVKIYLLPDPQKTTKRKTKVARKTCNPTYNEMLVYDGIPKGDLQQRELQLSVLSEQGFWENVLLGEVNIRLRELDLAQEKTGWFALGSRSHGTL", "experiment": "SelectScreen Adapta", "conditions": "ATP 10 µM, read-out: Percentage of inhibition", "protocol": "as §1"}, "PIK3C3 (hVPS34)": {"molecular_target": "T15, PIK3C3 (hVPS34) (Homo sapiens, UniProt Q8NEB9)", "T15 construct": "purchased Life Technologies (SelectScreen)", "experiment": "SelectScreen Adapta", "conditions": "ATP Km, read-out: Percentage of inhibition", "protocol": "as §1"}, "[1]": {"molecular_target": "PIK3CA E542K/PIK3R1 (p110 alpha E542K/p85 alpha (Homo sapiens, UniProt P42336, E542K))", "sequence (P42336 whole entry E542K)": "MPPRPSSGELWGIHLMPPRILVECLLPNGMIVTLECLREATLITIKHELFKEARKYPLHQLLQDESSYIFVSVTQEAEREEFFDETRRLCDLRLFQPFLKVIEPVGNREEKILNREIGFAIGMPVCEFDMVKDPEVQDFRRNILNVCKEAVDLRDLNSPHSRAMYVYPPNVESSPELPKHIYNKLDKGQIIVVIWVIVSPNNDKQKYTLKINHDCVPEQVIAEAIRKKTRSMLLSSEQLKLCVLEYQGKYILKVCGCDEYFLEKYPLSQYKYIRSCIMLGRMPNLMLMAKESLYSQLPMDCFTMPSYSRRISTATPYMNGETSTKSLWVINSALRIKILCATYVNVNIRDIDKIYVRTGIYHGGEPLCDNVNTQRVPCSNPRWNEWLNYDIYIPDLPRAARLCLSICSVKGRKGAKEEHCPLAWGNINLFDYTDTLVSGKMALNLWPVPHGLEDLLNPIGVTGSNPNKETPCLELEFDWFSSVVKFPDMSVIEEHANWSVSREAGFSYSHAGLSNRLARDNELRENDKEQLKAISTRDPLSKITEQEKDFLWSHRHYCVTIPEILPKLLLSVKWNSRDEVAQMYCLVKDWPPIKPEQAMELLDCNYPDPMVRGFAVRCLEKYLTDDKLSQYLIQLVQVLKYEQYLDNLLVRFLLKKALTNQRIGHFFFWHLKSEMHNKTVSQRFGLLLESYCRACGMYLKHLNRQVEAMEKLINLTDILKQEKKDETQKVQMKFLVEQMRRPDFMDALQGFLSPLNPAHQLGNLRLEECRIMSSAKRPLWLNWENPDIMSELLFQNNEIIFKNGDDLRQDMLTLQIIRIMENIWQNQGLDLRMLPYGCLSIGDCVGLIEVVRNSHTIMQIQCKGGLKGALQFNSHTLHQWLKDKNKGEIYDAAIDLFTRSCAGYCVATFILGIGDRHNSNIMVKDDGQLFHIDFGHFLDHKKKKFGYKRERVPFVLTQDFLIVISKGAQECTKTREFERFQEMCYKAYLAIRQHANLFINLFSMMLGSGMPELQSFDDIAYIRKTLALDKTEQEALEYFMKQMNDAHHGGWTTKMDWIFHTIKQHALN", "sequence (P27986 whole entry partner)": "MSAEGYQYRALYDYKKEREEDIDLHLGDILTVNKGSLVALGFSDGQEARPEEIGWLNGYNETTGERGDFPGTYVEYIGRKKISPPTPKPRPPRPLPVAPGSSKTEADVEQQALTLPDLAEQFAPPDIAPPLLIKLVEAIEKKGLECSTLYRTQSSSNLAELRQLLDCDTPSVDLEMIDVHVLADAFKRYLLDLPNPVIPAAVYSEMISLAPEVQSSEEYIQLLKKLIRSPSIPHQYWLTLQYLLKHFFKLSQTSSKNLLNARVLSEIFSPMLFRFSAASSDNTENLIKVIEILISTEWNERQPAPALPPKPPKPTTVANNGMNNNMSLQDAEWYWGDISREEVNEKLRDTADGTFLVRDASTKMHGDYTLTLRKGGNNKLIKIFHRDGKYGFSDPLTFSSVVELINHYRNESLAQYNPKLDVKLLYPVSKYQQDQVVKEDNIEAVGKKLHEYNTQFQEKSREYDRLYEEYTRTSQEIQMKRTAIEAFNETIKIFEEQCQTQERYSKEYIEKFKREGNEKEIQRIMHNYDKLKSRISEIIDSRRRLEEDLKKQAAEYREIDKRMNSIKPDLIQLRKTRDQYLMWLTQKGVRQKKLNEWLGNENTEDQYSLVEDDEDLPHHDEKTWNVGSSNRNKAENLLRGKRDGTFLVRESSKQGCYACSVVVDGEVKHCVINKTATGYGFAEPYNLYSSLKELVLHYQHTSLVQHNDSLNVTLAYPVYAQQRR", "experiment": "SelectScreen Adapta", "conditions": "ATP 10 µM, read-out: Percentage of inhibition", "protocol": "as §1"}, "[2]": {"molecular_target": "T16, PIK3CA E545K/PIK3R1 (p110 alpha E545K/p85 alpha) (Homo sapiens, UniProt P42336, E545K)", "T16 construct": "purchased Life Technologies (SelectScreen Whole Panel)", "T16 sequence (P42336 whole entry E545K)": "as the sequence (P42336 whole entry E542K) above, with K542E, E545K counted along it", "T16 sequence (P27986 whole entry partner)": "as the sequence (P27986 whole entry partner) above", "experiment": "SelectScreen Adapta", "conditions": "ATP Km, read-out: Percentage of inhibition", "protocol": "as §1"}, "[3]": {"molecular_target": "PIK3CA/PIK3R1 (p110 alpha/p85 alpha) (Homo sapiens, UniProt P42336)", "experiment": "SelectScreen Adapta", "conditions": "ATP Km, read-out: Percentage of inhibition", "protocol": "as §1"}, "[4]": {"molecular_target": "T17, PIK3CA/PIK3R3 (p110 alpha/p55 gamma) (Homo sapiens, UniProt P42336)", "T17 construct": "purchased Life Technologies (SelectScreen Whole Panel)", "experiment": "SelectScreen Adapta", "conditions": "ATP Km, read-out: Percentage of inhibition", "protocol": "as §1"}, "[5]": {"molecular_target": "T18, PIK3CB/PIK3R1 (p110 beta/p85 alpha) (Homo sapiens, UniProt P42338)", "T18 construct": "purchased Life Technologies (SelectScreen)", "experiment": "SelectScreen Adapta", "conditions": "ATP Km, read-out: Percentage of inhibition", "protocol": "as §1"}, "[6]": {"molecular_target": "T19, PIK3CB/PIK3R2 (p110 beta/p85 beta) (Homo sapiens, UniProt P42338)", "T19 construct": "purchased Life Technologies", "experiment": "SelectScreen Adapta", "conditions": "ATP Km, read-out: Percentage of inhibition", "protocol": "as §1"}, "[7]": {"molecular_target": "T20, PIK3CD/PIK3R1 (p110 delta/p85 alpha) (Homo sapiens, UniProt O00329)", "T20 construct": "purchased Life Technologies (SelectScreen Whole Panel service)", "experiment": "SelectScreen Adapta", "conditions": "ATP Km, read-out: Percentage of inhibition", "protocol": "as §1"}, "PIK3CG (p110 gamma)": {"molecular_target": "PIK3CG (p110 gamma) (Homo sapiens, UniProt P48736)", "experiment": "SelectScreen Adapta", "conditions": "ATP Km, read-out: Percentage of inhibition", "protocol": "as §1"}, "PIP4K2A": {"molecular_target": "PIP4K2A (Homo sapiens, UniProt P48426)", "experiment": "SelectScreen Adapta", "conditions": "ATP 10 µM, read-out: Percentage of inhibition", "protocol": "as §1"}, "PIP5K1A": {"molecular_target": "T21, PIP5K1A (Homo sapiens, UniProt Q99755)", "T21 construct": "purchased Life Technologies (SelectScreen service)", "experiment": "SelectScreen Adapta", "conditions": "ATP 10 µM, read-out: Percentage of inhibition", "protocol": "as §1"}, "PIP5K1B": {"molecular_target": "T22, PIP5K1B (Homo sapiens, UniProt O14986)", "T22 construct": "purchased Life Technologies", "experiment": "SelectScreen Adapta", "conditions": "ATP 10 µM, read-out: Percentage of inhibition", "protocol": "as §1"}, "SPHK1": {"molecular_target": "T23, SPHK1 (Homo sapiens, UniProt Q9NYA1)", "T23 construct": "purchased Life Technologies (SelectScreen Whole Panel)", "experiment": "SelectScreen Adapta", "conditions": "ATP Km, read-out: Percentage of inhibition", "protocol": "as §1"}, "SPHK2": {"molecular_target": "T24, SPHK2 (Homo sapiens, UniProt Q9NRA0)", "T24 construct": "purchased Life Technologies (SelectScreen Whole Panel)", "experiment": "SelectScreen Adapta", "conditions": "ATP 10 µM, read-out: Percentage of inhibition", "protocol": "as §1"}}, "data": [{"smiles": "COc1ccc2[nH]c3c(=O)[nH]c4ccc(O)cc4c3c2c1", "note": "[Compound 55, 2-Hydroxy-10-methoxy-5,7-dihydro-6H-indolo[2,3-c]quinolin-6-one]", "values": [{"measurement": "Number of the 486 kinases inhibited by >50%", "setting": "panel of 486 kinases", "result": 159}, {"measurement": "inhibition at 1 µM", "setting": "CAMK1 (CaMK1)", "result": 10, "unit": "%"}, {"measurement": "inhibition at 1 µM", "setting": "CDK4/cyclin D1", "result": 12, "unit": "%"}, {"measurement": "inhibition at 1 µM", "setting": "CDK4/cyclin D3", "result": 5, "unit": "%"}, {"measurement": "inhibition at 1 µM", "setting": "CDK6/cyclin D1", "result": 14, "unit": "%"}, {"measurement": "inhibition at 1 µM", "setting": "CDK7/cyclin H/MNAT1", "result": 27, "unit": "%"}, {"measurement": "inhibition at 1 µM", "setting": "CDK9/cyclin T1", "result": 70, "unit": "%"}, {"measurement": "inhibition at 1 µM", "setting": "DAPK1", "result": 57, "unit": "%"}, {"measurement": "inhibition at 1 µM", "setting": "GSG2 (Haspin)", "result": 100, "unit": "%"}, {"measurement": "inhibition at 1 µM", "setting": "IRAK1", "result": 91, "unit": "%"}, {"measurement": "inhibition at 1 µM", "setting": "LRRK2", "result": 90, "unit": "%"}, {"measurement": "inhibition at 1 µM", "setting": "LRRK2 FL", "result": 95, "unit": "%"}, {"measurement": "inhibition at 1 µM", "setting": "LRRK2 G2019S", "result": 95, "unit": "%"}, {"measurement": "inhibition at 1 µM", "setting": "LRRK2 I2020T", "result": 100, "unit": "%"}, {"measurement": "inhibition at 1 µM", "setting": "LRRK2 R1441C", "result": 93, "unit": "%"}, {"measurement": "inhibition at 1 µM", "setting": "NUAK1 (ARK5)", "result": 65, "unit": "%"}, {"measurement": "inhibition at 1 µM", "setting": "PI4K2B (PI4K2 beta)", "result": 1, "unit": "%"}, {"measurement": "inhibition at 1 µM", "setting": "PI4KA (PI4K alpha)", "result": 0, "unit": "%"}, {"measurement": "inhibition at 1 µM", "setting": "PI4KB (PI4K beta)", "result": 41, "unit": "%"}, {"measurement": "inhibition at 1 µM", "setting": "PIK3C2B", "result": 67, "unit": "%"}, {"measurement": "inhibition at 1 µM", "setting": "PIK3C3 (hVPS34)", "result": 9, "unit": "%"}, {"measurement": "inhibition at 1 µM", "setting": "[1]", "result": 70, "unit": "%"}, {"measurement": "inhibition at 1 µM", "setting": "[2]", "result": 51, "unit": "%"}, {"measurement": "inhibition at 1 µM", "setting": "[3]", "result": 62, "unit": "%"}, {"measurement": "inhibition at 1 µM", "setting": "[4]", "result": 53, "unit": "%"}, {"measurement": "inhibition at 1 µM", "setting": "[5]", "result": 9, "unit": "%"}, {"measurement": "inhibition at 1 µM", "setting": "[6]", "result": 33, "unit": "%"}, {"measurement": "inhibition at 1 µM", "setting": "[7]", "result": 44, "unit": "%"}, {"measurement": "inhibition at 1 µM", "setting": "PIK3CG (p110 gamma)", "result": 19, "unit": "%"}, {"measurement": "inhibition at 1 µM", "setting": "PIP4K2A", "result": 13, "unit": "%"}, {"measurement": "inhibition at 1 µM", "setting": "PIP5K1A", "result": 23, "unit": "%"}, {"measurement": "inhibition at 1 µM", "setting": "PIP5K1B", "result": 33, "unit": "%"}, {"measurement": "inhibition at 1 µM", "setting": "SPHK1", "result": -3, "unit": "%"}, {"measurement": "inhibition at 1 µM", "setting": "SPHK2", "result": -1, "unit": "%"}]}]}
